Measurements published in ChEMBL document CHEMBL1201862, “PubChem BioAssay data set” (2004).
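Dose response: 5 concentrations. Exposure: 48 h. Format: 96-well plates. Endpoint: linear interpolation; highest concentration if not reached. The concentration for 50% growth inhibition is given as GI50.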 Active and inactive are the calls of the source. Cut-off read from the data, not from the text of the source: active = GI50 up to about 1.1 µM and inactive = higher.

Columns and labels:
Assay in all cases: growth of human tumour cells (NCI), 48 h
NCI-H23 = tested on: NCI-H23
NCI-H522 = tested on: NCI-H522
M14 = tested on: M14
KM12 = tested on: KM12
UACC-62 = tested on: UACC-62
SN12C = tested on: SN12C
K562 = tested on: K562
T47D = tested on: T47D
A549 = tested on: A549
MOLT-4 = tested on: MOLT-4
HCT-15 = tested on: HCT-15
Malme-3M = tested on: Malme-3M
HOP-92 = tested on: HOP-92
LOX IMVI = tested on: LOX IMVI
DU-145 = tested on: DU-145
MDA-MB-231 = tested on: MDA-MB-231
MCF7 = tested on: MCF7
SR = tested on: SR
NCI/ADR-RES = tested on: NCI/ADR-RES
A498 = tested on: A498

Measured: GI50

CC(C)(C)c1cc(C(=O)Nc2cc(Br)c(Br)cc2S(N)(=O)=O)cc(C(C)(C)C)c1O
3.85 µM: HCT-15
inactive: NCI-H23 20 µM | NCI-H522 11.8 µM | M14 15.2 µM | KM12 5.77 µM | UACC-62 6.08 µM | SN12C 7.24 µM | K562 5.71 µM | T47D 3.24 µM | A549 9.12 µM | MOLT-4 4.39 µM | Malme-3M 13.5 µM | HOP-92 6.52 µM | LOX IMVI 6.46 µM | DU-145 15.3 µM | MDA-MB-231 9.51 µM | MCF7 5.37 µM | SR 6 µM

CC(C)(C)OC(=O)N[C@H]1CCN(C2CCCCC2)C1=O
inactive: NCI-H23 > 100 µM | M14 > 100 µM | UACC-62 > 100 µM | SN12C > 100 µM | NCI/ADR-RES 40.6 µM | K562 > 100 µM | A549 > 100 µM | MOLT-4 > 100 µM | HOP-92 > 100 µM | LOX IMVI > 100 µM | DU-145 > 100 µM | MDA-MB-231 > 100 µM | MCF7 > 100 µM | A498 > 100 µM | SR > 10 µM
> 100 µM: HCT-15

N#Cc1c(N2CCN(c3ccc([N+](=O)[O-])cc3)CC2)[n+]([O-])c2ccc(-c3ccc([N+](=O)[O-])cc3)cc2[n+]1[O-]
> 85.5 µM: HCT-15
active: LOX IMVI 0.9 µM
inactive: NCI-H23 > 31 µM | M14 19.2 µM | KM12 > 83.6 µM | UACC-62 18 µM | NCI/ADR-RES 9.08 µM | K562 5.26 µM | T47D 3.58 µM | A549 2.49 µM | Malme-3M > 42 µM | DU-145 21.2 µM | MDA-MB-231 22.5 µM | MCF7 > 100 µM | A498 > 100 µM

O=C1Nc2ccccc2C1S(=O)(=O)c1ccccc1 (stereo unspecified)
> 100 µM: HCT-15
inactive: NCI-H23 > 100 µM | NCI-H522 > 100 µM | M14 > 100 µM | KM12 > 100 µM | UACC-62 > 100 µM | SN12C > 100 µM | NCI/ADR-RES > 100 µM | K562 > 100 µM | T47D > 100 µM | A549 > 100 µM | MOLT-4 > 100 µM | Malme-3M > 100 µM | HOP-92 > 100 µM | LOX IMVI > 100 µM | DU-145 > 100 µM | MDA-MB-231 > 100 µM | A498 > 100 µM | SR > 100 µM

CC1=C(C)SC(=C2Sc3[n-]c(=O)[nH]c(=O)c3S2)S1.CCCC[N+](CCCC)(CCCC)CCCC
inactive: NCI-H23 > 100 µM | NCI-H522 15.1 µM | M14 31.3 µM | KM12 98.2 µM | UACC-62 27.2 µM | SN12C > 100 µM | NCI/ADR-RES 95.9 µM | K562 49.4 µM | A549 > 100 µM | MOLT-4 95.1 µM | Malme-3M 20.6 µM | HOP-92 > 100 µM | LOX IMVI 44.6 µM | DU-145 > 100 µM | MDA-MB-231 > 100 µM | MCF7 42.5 µM | A498 > 100 µM | SR 35.9 µM
> 100 µM: HCT-15

O=C1C=CC(=O)c2c1cc1ccccc1c2O
4.8 µM: HCT-15
inactive: NCI-H23 13 µM | NCI-H522 1.9 µM | M14 10.7 µM | KM12 13.2 µM | UACC-62 6.32 µM | SN12C 12.3 µM | NCI/ADR-RES 6.18 µM | T47D 1.61 µM | A549 16.7 µM | Malme-3M 6.18 µM | HOP-92 1.8 µM | LOX IMVI 2.72 µM | DU-145 14.6 µM | MDA-MB-231 2.04 µM | A498 13.5 µM
active: K562 0.767 µM | MOLT-4 0.387 µM | SR 0.428 µM
